{
  "source": "patent US20120004193A1",
  "about": "“PROCESS FOR PRODUCTION OF ORALLY INGESTIBLE COMPOSITION CONTAINING ARABINOFURANOSYL VITEXIN, AND USE OF THE COMPOSITION” (Fuji Sangyo Co., Ltd., priority 2009, published 2012)",
  "system": "ICR mice",
  "assay": "Sedative and sleep-inducing activities in thiopental sodium-treated mice",
  "assay_type": "in vivo, mouse",
  "conditions": "100 mg/kg body weight oral, thiopental sodium 30 mg/kg i.p. 45 minutes later, measured over 40 minutes, compared with negative control group, p<0.01 (Dunnet)",
  "description": "The arabinofuranosyl vitexin-isolated product obtained in the above-mentioned procedure (1) was used to study sedative and sleep-inducing effects. A sample was orally administered to six ICR mice (body weight: 40 to 45 g).\nAs the sample, the ‘arabinofuranosyl vitexin (100 mg/kg body weight)’ dissolved in physiological saline was orally administered. It should be noted that ‘diazepam (2 mg/kg body weight)’ having a sleep-inducing effect was dissolved in physiological saline and orally administered as a positive control, and ‘physiological saline alone’ was orally administered as a negative control.\nThen, 45 minutes after the oral administration of the sample, thiopental sodium (30 mg/kg body weight) […] was administered intraperitoneally, and the mice were individually placed in mouse cages (17 cm×27 cm).\nIn a period from the start of the administration of thiopental sodium to 40 minutes later, a total time when a mouse stopped moving for one or more minutes and got in a sleep state was measured to evaluate the sedative and sleep-inducing effects.\nIt should be noted that the symbol in FIG. 2 represents that there is a significant difference compared with the negative control group at a risk rate of less than 1% (p<0.01) by a Dunnet multiple comparison assay.",
  "data": [
    {"smiles": "O=c1cc(-c2ccc(O)cc2)oc2c(C3OC(CO)C(O)C(O)C3OC3OC(CO)C(O)C3O)c(O)cc(O)c12", "note": "[arabinofuranosyl vitexin, 2″-O-α-D-arabinofuranosyl vitexin]", "values": [
      {"measurement": "sedation and sleeping times (total time when a mouse stopped moving for one or more minutes and got in a sleep state)", "result": "extended significantly"}
    ]}
  ]
}
